Results on 1 molecule are retold here after publication PMC10167756 (Journal of medicinal chemistry, 2023).

Structures can show the parent of a compound that is named as a salt.

The assay has as its target T1, Spns2 (Spinster homolog 2) (Mus musculus, UniProt Q91VM4).
T1 sequence (Q91VM4 1-549): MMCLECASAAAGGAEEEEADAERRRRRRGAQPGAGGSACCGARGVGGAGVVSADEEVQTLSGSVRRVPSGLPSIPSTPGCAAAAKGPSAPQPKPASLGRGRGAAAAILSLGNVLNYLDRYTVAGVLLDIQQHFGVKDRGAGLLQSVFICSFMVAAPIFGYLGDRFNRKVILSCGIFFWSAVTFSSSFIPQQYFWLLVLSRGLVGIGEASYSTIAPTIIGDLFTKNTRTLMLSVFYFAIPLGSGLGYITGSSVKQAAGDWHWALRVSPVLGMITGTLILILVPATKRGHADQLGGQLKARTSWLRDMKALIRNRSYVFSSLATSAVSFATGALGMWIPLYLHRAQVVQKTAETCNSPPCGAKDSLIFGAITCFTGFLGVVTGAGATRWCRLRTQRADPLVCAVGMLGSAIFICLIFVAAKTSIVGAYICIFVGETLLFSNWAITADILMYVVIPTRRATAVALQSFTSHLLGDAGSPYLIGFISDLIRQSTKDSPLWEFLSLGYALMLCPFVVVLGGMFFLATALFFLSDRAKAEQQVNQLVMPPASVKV
Briefly: S1P release assay in mouse Spns2-transfected HeLa cells, % inhibition at […]. The assay is classed as cell-based.

What is called inhibition is how much of the control response was suppressed. Molecule `CCCCCCCCCc1ccc2oc(NC[C@H]3CCNC3)nc2c1` [35p, (S)-5-nonyl-N-(pyrrolidin-3-ylmethyl)benzo[d]oxazol-2-amine hydrochloride] registered an inhibition at 0.3 µM of 50 ± 4%.
